From patent publication EP0115820A2, “Cephalosporin derivatives and process for their preparation” (Kaken Pharmaceutical Co., Ltd., priority 1983, dated 1984) come the findings set out here.

Holding throughout (experiment): Minimum inhibitory concentration (MIC)
Common to all, as to type: cell-based

Assay [1] has as its system Escherichia coli NIHJ JC-2. The note with it: NIHJJC2; Escherichia coli NIHJ JC-2; bacterial suspension 10^6 cells/ml; sodium salts tested; read-out: Minimum inhibitory concentration. From the text:
(§1) The cephalosporin derivatives of the present invention are novel substances, and the antimicrobial activities of their sodium salts are shown by the minimum inhibitory concentrations (MIC, µg/ml) in Table 1, as compared with a typical known cephalosporin compound.

Assay [2] relates to Klebsiella pneumoniae No. 42. The note with it: Klebsiella pneumoniae No. 42; bacterial suspension 10^6 cells/ml; sodium salts tested; read-out: Minimum inhibitory concentration.
Description: as §1

The test system of another assay is Proteus vulgaris GN-76. The note with it: GN76; Proteus vulgaris GN-76; bacterial suspension 10^6 cells/ml; sodium salts tested; read-out: Minimum inhibitory concentration.
Description: as §1

In assay [3] the test system is Pseudomonas aeruginosa E-2. The note with it: E2; Pseudomonas aeruginosa E-2; bacterial suspension 10^6 cells/ml; sodium salts tested; read-out: Minimum inhibitory concentration.
Description: as §1

The subject of assay [4] is Pseudomonas aeruginosa K-13. The note with it: K13; Pseudomonas aeruginosa K-13; bacterial suspension 10^6 cells/ml; sodium salts tested; read-out: Minimum inhibitory concentration.
Description: as §1

Assay [5] has as its system Pseudomonas aeruginosa Y-1. Conditions: Y1; Pseudomonas aeruginosa Y-1; bacterial suspension 10^6 cells/ml; sodium salts tested; read-out: Minimum inhibitory concentration.
Description: as §1

Assay [6] relates to Serratia marcescens No. 16-2. The note with it: NO.162; Serratia marcescens No. 16-2; bacterial suspension 10^6 cells/ml; sodium salts tested; read-out: Minimum inhibitory concentration.
Description: as §1

Assay [7] relates to Staphylococcus aureus 209 P JC-1. The note with it: 209PJC1; Staphylococcus aureus 209 P JC-1; bacterial suspension 10^6 cells/ml; sodium salts tested; read-out: Minimum inhibitory concentration.
Description: as §1

Take `CO[C@@]1(NC(=O)C(NC(=O)c2ccc(O)c(O)c2)c2csc(N)n2)C(=O)N2C(C(=O)O)=C(CSc3nnnn3C)CS[C@@H]21` (mixture of isomers) [Example 12, 7α-methoxy-7β-[DL-2-(3,4-dihydroxy-benzoylamino)-2-(2-aminothiazol-4-yl)acetamido]-3-(l-methyl-lH-tetrazol-5-yl-thiomethyl)-3-cephem-4-carboxylic acid]: the MIC in assay [1] was 6.25 µg/mL; in assay [2] it was 0.1 µg/mL; with Proteus vulgaris GN-76, 1.56 µg/mL; in assay [3], 0.2 µg/mL; in assay [4], 0.39 µg/mL; in assay [5] it was 0.2 µg/mL. In addition, the MIC in assay [6] turned out to be 0.78 µg/mL; in assay [7], 1.56 µg/mL.
As to `CC(=O)OCC1=C(C(=O)O)N2C(=O)[C@@H](NC(=O)C(NC(=O)c3cccc(OC(C)=O)c3)c3csc(N)n3)[C@H]2SC1` (mixture of isomers) [Example 16, 7β-[DL-2-(3-acetoxybenzoylamino)-2-(2-aminothiazol-4-yl)acetamidolcephalosporic acid], the MIC was 1.56 µg/mL in assay [1]; 3.12 µg/mL in assay [2]; 6.25 µg/mL in the assay with Proteus vulgaris GN-76; 200 µg/mL in assay [3]; 200 µg/mL in assay [4]; more than 200 µg/mL in assay [5]. Moreover, the values for the MIC in assay [6] and in assay [7] were more than 200 µg/mL and 0.39 µg/mL, respectively.
`CCOC(=O)Oc1ccc(C(=O)NC(C(=O)N[C@@H]2C(=O)N3C(C(=O)O)=C(CSc4nnnn4C)CS[C@H]23)c2csc(N)n2)cc1OC(=O)OCC` (mixture of isomers) [Example 5, 7β-[DL-2-(3,4-diethoxycarbonyloxy-benzoylamino)-2-(2-aminothiazol-4-yl)acetamido]-3-(l-methyl-lH-tetrazol-5-yl-thiomethyl)-3-cephem-4-carboxylic acid]: the MIC in assay [1] was found to be 0.78 µg/mL; in assay [2], 0.2 µg/mL; in the assay with Proteus vulgaris GN-76, 6.25 µg/mL; in assay [3], 0.39 µg/mL; in assay [4] it was 0.2 µg/mL; in assay [5], 0.1 µg/mL. Besides, the MIC in assay [6] is 50 µg/mL; in assay [7], 0.39 µg/mL.
Consider `CO[C@@]1(NC(=O)C(NC(=O)c2cc(OC(C)=O)c(OC(C)=O)c(OC(C)=O)c2)c2csc(N)n2)C(=O)N2C(C(=O)O)=C(CSc3nnnn3C)CS[C@@H]21` (mixture of isomers) [Example 11, 7α-methoxy-7β-[DL-2-(3,4,5-triacetoxy-benzoylamino)-2-(2-aminothiazol-4-yl)acetamido]-3-(1-methyl-lH-tetrazol-5-yl-thiomethyl)-3-cephem-4-carboxylic acid], for which the MIC was 6.25 µg/mL in assay [1]; 0.39 µg/mL in assay [2]; 3.12 µg/mL in the assay with Proteus vulgaris GN-76; 0.39 µg/mL in assay [3]; 0.78 µg/mL in assay [4]; 0.78 µg/mL in assay [5]. Also, the MIC in assay [6] and in assay [7] was 6.25 µg/mL in each case.
Take `CO[C@@]1(NC(=O)C(NC(=O)c2ccc(OC(C)=O)c(OC(C)=O)c2)c2csc(N)n2)C(=O)N2C(C(=O)O)=C(COC(C)=O)CS[C@@H]21` (mixture of isomers) [Example 6, 7α-methoxy-7β-[DL-2-(3,4-diacetoxy-benzoylamino)-2-(2-aminothiazol-4-yl)acetamido]-cephalosporic acid]: the MIC in assay [1] came to 3.12 µg/mL; in assay [2], 0.39 µg/mL; in the assay on Proteus vulgaris GN-76 it was 12.5 µg/mL; in assay [3] it was 0.78 µg/mL; in assay [4], 1.56 µg/mL; in assay [5] it was 0.78 µg/mL. For the same compound, the MIC in assay [6] stood at 6.25 µg/mL; in assay [7], 1.56 µg/mL.
On to `CC(=O)OCC1=C(C(=O)O)N2C(=O)[C@@H](NC(=O)C(NC(=O)c3cccc(OC(C)=O)c3OC(C)=O)c3csc(N)n3)[C@H]2SC1` (mixture of isomers) [Example 14, 7β-[DL-2-(2,3-diacetoxybenzoylamino)-2-(2-aminothiazol-4-yl)acetamido]cephalosporic acid], for which the MIC in assay [1] amounted to 1.56 µg/mL; in assay [2], 0.39 µg/mL; in the assay with Proteus vulgaris GN-76, 0.78 µg/mL; in assay [3], 0.39 µg/mL; in assay [4], 0.39 µg/mL; in assay [5] it was 0.2 µg/mL. The MIC in assay [6] worked out at 12.5 µg/mL; in assay [7] it was 3.12 µg/mL.
